What was measured:
Oocyte [1] = test: Percentage opening of human Maxi-K channel in transfected oocyte cells at 20 uM; assay type: cell-based
Oryctolagus cuniculus = species on record: Oryctolagus cuniculus; test: Percentage relaxation of phenylephrine-contracted rabbit corpus cavernosum tissue strips at concentration of 10 uM; assay type: functional
Oocyte [2] = test: Percentage opening of human Maxi-K channel in transfected oocyte cells at 10 uM; assay type: cell-based
Oocyte [3] = test: Percentage opening of human Maxi-K channel in transfected oocyte cells at 5 uM; assay type: cell-based

How did the Activity (Oocyte [1]) turn out when `CC(=O)N1CCN(CCCC(=O)CSc2c(O)nc3ccc(C(F)(F)F)cc3c2-c2cc(Cl)ccc2O)CC1` was run?
The Activity was 284%.

What does the source list for `CN(C)CCN(C)CCC(=O)Nc1ccc(Sc2c(O)nc3ccc(C(F)(F)F)cc3c2-c2cc(Cl)ccc2O)cc1`?
Activity (Oocyte [1]): 489%; Relaxation (Oryctolagus cuniculus): 29%

`O=C(CCN1CCN(c2ccccn2)CC1)Nc1ccc(Sc2c(O)nc3ccc(C(F)(F)F)cc3c2-c2cc(Cl)ccc2O)cc1` was tested. Which Activity (Oocyte [2]) did it give?
The Activity was 169%.

What about the Relaxation (Oryctolagus cuniculus) of the same compound?
The Relaxation was 37%.

`CN(C)CCCN(C)CC(O)CSc1c(O)nc2ccc(C(F)(F)F)cc2c1-c1cc(Cl)ccc1O` (stereo not drawn) was tested. Which Activity (Oocyte [1]) did it give?
The Activity was 214%.

`O=S(=O)(Nc1ccc(Sc2c(O)nc3ccc(C(F)(F)F)cc3c2-c2cc(Cl)ccc2O)cc1)C(F)(F)F` was tested. Which Activity (Oocyte [1]) did it give?
The Activity was 277%.

And the Relaxation (Oryctolagus cuniculus)?
The Relaxation was 32%.

What does the source list for `O=C(CN1CCCC1)Nc1ccc(Sc2c(O)nc3ccc(C(F)(F)F)cc3c2-c2cc(Cl)ccc2O)cc1`?
Activity (Oocyte [1]): 291%; Relaxation (Oryctolagus cuniculus): 28%

For `CN(CCCN1CCN(C)CC1)CCC(O)CSc1c(O)nc2ccc(C(F)(F)F)cc2c1-c1cc(Cl)ccc1O` (stereo not drawn), which Activity (Oocyte [1]) is on record?
The Activity was 515%.

For `CC1CCCN(CCCC(=O)CSc2c(O)nc3ccc(C(F)(F)F)cc3c2-c2cc(Cl)ccc2O)C1` (stereo not drawn), which Activity (Oocyte [1]) is on record?
Its Activity is 271%.

Which results are given for `Oc1ccc(Cl)cc1-c1c(SCC(O)CN2CCSCC2)c(O)nc2ccc(C(F)(F)F)cc12` (stereo not drawn)?
Activity (Oocyte [1]): 319%; Relaxation (Oryctolagus cuniculus): 48%

For `COc1ccc(Cl)cc1-c1c(SCC(O)CN2CCN(c3ncccn3)CC2)c(O)nc2ccc(C(F)(F)F)cc12` (stereo not drawn), which Activity (Oocyte [3]) is on record?
The Activity was 80%.

What does the source list for `COc1ccc(Cl)cc1-c1c(Sc2ccc(NS(=O)(=O)C(F)(F)F)cc2)c(O)nc2ccc(C(F)(F)F)cc12`?
Activity (Oocyte [1]): 235%; Relaxation (Oryctolagus cuniculus): 21%

With `OCCN1CCN(CC(O)CSc2c(O)nc3ccc(C(F)(F)F)cc3c2-c2cc(Cl)ccc2O)CC1` (stereo not drawn) as the compound, how does the Activity (Oocyte [1]) read?
Its Activity is 287%.

What about the Relaxation (Oryctolagus cuniculus) of the same compound?
Its Relaxation is 44%.

Which results are given for `O=C(CCN1CCCC1)CSc1c(O)nc2ccc(C(F)(F)F)cc2c1-c1cc(Cl)ccc1O`?
Activity (Oocyte [1]): 335%; Relaxation (Oryctolagus cuniculus): 30%

Which Activity (Oocyte [1]) does the source give for `O=C(CCN1CCCCC1)CSc1c(O)nc2ccc(C(F)(F)F)cc2c1-c1cc(Cl)ccc1O` here?
Its Activity is 199%.

Which Activity (Oocyte [1]) does the source give for `CN(C)C1CCN(C(=O)CSc2c(O)nc3ccc(C(F)(F)F)cc3c2-c2cc(Cl)ccc2O)CC1` here?
Its Activity is 286%.

And the Relaxation (Oryctolagus cuniculus)?
Its Relaxation is 35%.

For `CCCS(=O)(=O)Nc1ccc(Sc2c(O)nc3ccc(C(F)(F)F)cc3c2-c2cc(Cl)ccc2O)cc1`, which Activity (Oocyte [3]) is on record?
The Activity was 255%.

Which results are given for `O=C(CCN1CCCC1)Nc1ccc(Sc2c(O)nc3ccc(C(F)(F)F)cc3c2-c2cc(Cl)ccc2O)cc1`?
Activity (Oocyte [1]): 264%; Relaxation (Oryctolagus cuniculus): 35%

With `CN(C)S(=O)(=O)Nc1ccc(Sc2c(O)nc3ccc(C(F)(F)F)cc3c2-c2cc(Cl)ccc2O)cc1` as the compound, how does the Activity (Oocyte [3]) read?
Its Activity is 222%.

For `CCN(CC)CC(O)CSc1c(O)nc2ccc(C(F)(F)F)cc2c1-c1cc(Cl)ccc1O` (stereo not drawn), which Activity (Oocyte [1]) is on record?
The Activity was 192%.

And the Relaxation (Oryctolagus cuniculus)?
Its Relaxation is 57%.

`COc1ccc(Cl)cc1-c1c(SCC(O)CN2CCC(C)CC2)c(O)nc2ccc(C(F)(F)F)cc12` (stereo not drawn) was tested. Which Activity (Oocyte [1]) did it give?
Its Activity is 115%.

For `O=C(CSc1c(O)nc2ccc(C(F)(F)F)cc2c1-c1cc(Cl)ccc1O)N1CCN(CCOCCO)CC1`, which Activity (Oocyte [1]) is on record?
Its Activity is 205%.

And the Relaxation (Oryctolagus cuniculus)?
The Relaxation was 17%.

With `CCCS(=O)(=O)Nc1ccc(Sc2c(O)nc3ccc(C(F)(F)F)cc3c2-c2cc(Cl)ccc2OC)cc1` as the compound, how does the Activity (Oocyte [3]) read?
The Activity was 95%.

Which Activity (Oocyte [1]) does the source give for `O=C(CCCN1CCCC1)Nc1ccc(Sc2c(O)nc3ccc(C(F)(F)F)cc3c2-c2cc(Cl)ccc2O)cc1` here?
The Activity was 280%.

And the Relaxation (Oryctolagus cuniculus)?
Its Relaxation is 36%.

For `O=C(CSc1c(O)nc2ccc(C(F)(F)F)cc2c1-c1cc(Cl)ccc1O)N1CCN(CCO)CC1`, which Activity (Oocyte [1]) is on record?
The Activity was 151%.

And the Relaxation (Oryctolagus cuniculus)?
The Relaxation was 22%.

For `COc1ccc(Cl)cc1-c1c(SCC(O)CN2CCC(O)CC2)c(O)nc2ccc(C(F)(F)F)cc12` (stereo not drawn), which Activity (Oocyte [1]) is on record?
Its Activity is 125%.

For `O=C(CN1CCN(c2ccccn2)CC1)Nc1ccc(Sc2c(O)nc3ccc(C(F)(F)F)cc3c2-c2cc(Cl)ccc2O)cc1`, which Activity (Oocyte [3]) is on record?
Its Activity is 116%.

And the Relaxation (Oryctolagus cuniculus)?
The Relaxation was 17%.

Which results are given for `O=C(CCN1CCOCC1)Nc1ccc(Sc2c(O)nc3ccc(C(F)(F)F)cc3c2-c2cc(Cl)ccc2O)cc1`?
Activity (Oocyte [1]): 453%; Relaxation (Oryctolagus cuniculus): 22%

For `CC1CCN(CCCC(=O)CSc2c(O)nc3ccc(C(F)(F)F)cc3c2-c2cc(Cl)ccc2O)CC1`, which Activity (Oocyte [1]) is on record?
Its Activity is 213%.

Which Activity (Oocyte [1]) does the source give for `Oc1ccc(Cl)cc1-c1c(SCC(O)CN2CCOCC2)c(O)nc2ccc(C(F)(F)F)cc12` (stereo not drawn) here?
The Activity was 292%.

And the Relaxation (Oryctolagus cuniculus)?
Its Relaxation is 49%.

Which results are given for `CN1CCN(C(=O)CSc2c(O)nc3ccc(C(F)(F)F)cc3c2-c2cc(Cl)ccc2O)CC1`?
Activity (Oocyte [1]): 422%; Relaxation (Oryctolagus cuniculus): 14%

How did the Activity (Oocyte [2]) turn out when `O=C(CCCN1CCN(c2ccccn2)CC1)Nc1ccc(Sc2c(O)nc3ccc(C(F)(F)F)cc3c2-c2cc(Cl)ccc2O)cc1` was run?
Its Activity is 197%.

What about the Relaxation (Oryctolagus cuniculus) of the same compound?
The Relaxation was 37%.

With `CN1CCC(N(C)CCCC(=O)CSc2c(O)nc3ccc(C(F)(F)F)cc3c2-c2cc(Cl)ccc2O)C1` (stereo not drawn) as the compound, how does the Activity (Oocyte [1]) read?
The Activity was 226%.

For `CCOC(=O)CN1CCN(C(=O)CSc2c(O)nc3ccc(C(F)(F)F)cc3c2-c2cc(Cl)ccc2O)CC1`, which Activity (Oocyte [1]) is on record?
Its Activity is 281%.

What about the Relaxation (Oryctolagus cuniculus) of the same compound?
Its Relaxation is 19%.

Which Activity (Oocyte [2]) does the source give for `CCS(=O)(=O)Nc1ccc(Sc2c(O)nc3ccc(C(F)(F)F)cc3c2-c2cc(Cl)ccc2O)cc1` here?
Its Activity is 296%.

What does the source list for `CN(C)CCN(C)CC(=O)Nc1ccc(Sc2c(O)nc3ccc(C(F)(F)F)cc3c2-c2cc(Cl)ccc2O)cc1`?
Activity (Oocyte [1]): 231%; Relaxation (Oryctolagus cuniculus): 16%

How did the Activity (Oocyte [1]) turn out when `O=C(CCCN1CCC(N2CCCCC2)CC1)Nc1ccc(Sc2c(O)nc3ccc(C(F)(F)F)cc3c2-c2cc(Cl)ccc2O)cc1` was run?
The Activity was 268%.

What about the Relaxation (Oryctolagus cuniculus) of the same compound?
The Relaxation was 28%.

What does the source list for `O=C(CN1CCOCC1)Nc1ccc(Sc2c(O)nc3ccc(C(F)(F)F)cc3c2-c2cc(Cl)ccc2O)cc1`?
Activity (Oocyte [2]): 296%; Relaxation (Oryctolagus cuniculus): 34%

Which Activity (Oocyte [1]) does the source give for `O=C(CN1CCC(N2CCCCC2)CC1)Nc1ccc(Sc2c(O)nc3ccc(C(F)(F)F)cc3c2-c2cc(Cl)ccc2O)cc1` here?
Its Activity is 283%.

What about the Relaxation (Oryctolagus cuniculus) of the same compound?
The Relaxation was 45%.

Which Activity (Oocyte [1]) does the source give for `COc1ccc(Cl)cc1-c1c(SCC(O)CN2CCN(C)CC2)c(O)nc2ccc(C(F)(F)F)cc12` (stereo not drawn) here?
The Activity was 163%.

Which Activity (Oocyte [1]) does the source give for `O=C(CCCN1CCC(N2CCCCC2)CC1)CSc1c(O)nc2ccc(C(F)(F)F)cc2c1-c1cc(Cl)ccc1O` here?
The Activity was 298%.

How did the Activity (Oocyte [1]) turn out when `CN(C)CCCN(C)CCC(=O)CSc1c(O)nc2ccc(C(F)(F)F)cc2c1-c1cc(Cl)ccc1O` was run?
The Activity was 178%.

Which Activity (Oocyte [1]) does the source give for `COc1ccc(Cl)cc1-c1c(SCC(O)CN2CCN(C(C)=O)CC2)c(O)nc2ccc(C(F)(F)F)cc12` (stereo not drawn) here?
Its Activity is 192%.

For `CN1CCN(CCC(=O)Nc2ccc(Sc3c(O)nc4ccc(C(F)(F)F)cc4c3-c3cc(Cl)ccc3O)cc2)CC1`, which Activity (Oocyte [1]) is on record?
Its Activity is 474%.

What about the Relaxation (Oryctolagus cuniculus) of the same compound?
Its Relaxation is 30%.

With `CN(C)CCN1CCN(CC(O)CSc2c(O)nc3ccc(C(F)(F)F)cc3c2-c2cc(Cl)ccc2O)CC1` (stereo not drawn) as the compound, how does the Activity (Oocyte [1]) read?
The Activity was 113%.

How did the Activity (Oocyte [1]) turn out when `O=C(CCN1CCC(O)CC1)CSc1c(O)nc2ccc(C(F)(F)F)cc2c1-c1cc(Cl)ccc1O` was run?
The Activity was 235%.

For `CN(C)C1CCN(CC(=O)Nc2ccc(Sc3c(O)nc4ccc(C(F)(F)F)cc4c3-c3cc(Cl)ccc3O)cc2)CC1`, which Activity (Oocyte [1]) is on record?
Its Activity is 292%.

What about the Relaxation (Oryctolagus cuniculus) of the same compound?
Its Relaxation is 19%.

Which Activity (Oocyte [1]) does the source give for `O=C(CCN1CCN(CCO)CC1)CSc1c(O)nc2ccc(C(F)(F)F)cc2c1-c1cc(Cl)ccc1O` here?
Its Activity is 241%.

How did the Activity (Oocyte [3]) turn out when `COc1ccc(Cl)cc1-c1c(Sc2ccc(NS(=O)(=O)N(C)C)cc2)c(O)nc2ccc(C(F)(F)F)cc12` was run?
The Activity was 114%.

Which results are given for `O=C(CCN1CCC(N2CCCCC2)CC1)Nc1ccc(Sc2c(O)nc3ccc(C(F)(F)F)cc3c2-c2cc(Cl)ccc2O)cc1`?
Activity (Oocyte [1]): 255%; Relaxation (Oryctolagus cuniculus): 23%

How did the Activity (Oocyte [1]) turn out when `O=S(=O)(CCCN1CCOCC1)Nc1ccc(Sc2c(O)nc3ccc(C(F)(F)F)cc3c2-c2cc(Cl)ccc2O)cc1` was run?
Its Activity is 354%.

What about the Relaxation (Oryctolagus cuniculus) of the same compound?
Its Relaxation is 35%.

With `O=S(=O)(CC(F)(F)F)Nc1ccc(Sc2c(O)nc3ccc(C(F)(F)F)cc3c2-c2cc(Cl)ccc2O)cc1` as the compound, how does the Activity (Oocyte [1]) read?
The Activity was 170%.

For `COc1ccc(Cl)cc1-c1c(SCC(O)CN2CCSCC2)c(O)nc2ccc(C(F)(F)F)cc12` (stereo not drawn), which Activity (Oocyte [1]) is on record?
The Activity was 97%.

What does the source list for `O=c1[nH]c2ccc(C(F)(F)F)cc2c(-c2cc(Cl)ccc2O)c1CCO` [BMS-223131]?
Activity (Oocyte [1]): 378%; Relaxation (Oryctolagus cuniculus): 83.7%

With `Oc1ccc(Cl)cc1-c1c(SCC(O)CN2CCCC2)c(O)nc2ccc(C(F)(F)F)cc12` (stereo not drawn) as the compound, how does the Activity (Oocyte [1]) read?
The Activity was 192%.

With `CN1CCN(CC(=O)Nc2ccc(Sc3c(O)nc4ccc(C(F)(F)F)cc4c3-c3cc(Cl)ccc3O)cc2)CC1` as the compound, how does the Activity (Oocyte [1]) read?
Its Activity is 246%.

What about the Relaxation (Oryctolagus cuniculus) of the same compound?
Its Relaxation is 19%.

How did the Activity (Oocyte [1]) turn out when `CN1CCN(CCC(=O)CSc2c(O)nc3ccc(C(F)(F)F)cc3c2-c2cc(Cl)ccc2O)CC1` was run?
Its Activity is 550%.

What does the source list for `NC(=O)C1CCN(C(=O)CSc2c(O)nc3ccc(C(F)(F)F)cc3c2-c2cc(Cl)ccc2O)CC1`?
Activity (Oocyte [1]): 203%; Relaxation (Oryctolagus cuniculus): 67%
